As usually defined, the IC50 is the concentration that inhibits the measured activity by half.

Sequence of recombinant human SGK-1 enzyme (O00141 whole entry, looked up): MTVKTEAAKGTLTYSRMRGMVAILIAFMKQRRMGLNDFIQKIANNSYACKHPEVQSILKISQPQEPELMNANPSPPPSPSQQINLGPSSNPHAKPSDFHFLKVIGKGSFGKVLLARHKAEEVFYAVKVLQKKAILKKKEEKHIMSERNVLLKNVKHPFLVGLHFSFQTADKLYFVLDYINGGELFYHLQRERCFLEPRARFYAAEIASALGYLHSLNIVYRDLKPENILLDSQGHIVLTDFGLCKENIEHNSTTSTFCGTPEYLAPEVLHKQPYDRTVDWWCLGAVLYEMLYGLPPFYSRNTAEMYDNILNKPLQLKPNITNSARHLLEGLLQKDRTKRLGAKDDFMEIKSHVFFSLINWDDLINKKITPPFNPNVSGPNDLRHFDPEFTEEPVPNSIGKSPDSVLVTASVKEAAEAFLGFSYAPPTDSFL

For one assay, the target named is recombinant human SGK-1 enzyme (Homo sapiens, UniProt O00141). Description: Enzymatic activity assay: SGK-1 substrate peptide phosphorylation (Caliper lab-chip mobility shift). Format: biochemical. The settings on record: peptide substrate 1 μM, ATP 10 μM, 60 min at 37° C., read-out: IC50 values for inhibition of SGK-1 enzymatic activity. The protocol:
In one of the cellular assays, the SGK-1 dependent phosphorylation of glycogen synthase kinase 3beta (GSK3beta) in U2OS cells was measured, in another one, a functional electrophysiological assay, the SGK-1 dependent activation of epithelial Na^+ channel (ENaC) currents in A6 cell monolayers, and in another one chondrocyte hypertrophic differentiation in mouse chondrogenic ATDC5 cells.
A) Enzymatic Activity Assay
For the determination of the compound dose response, a 10 mM DMSO stock solution was diluted and tested in a ten-point, three-fold dilution series run in duplicate beginning at 30 μM final concentration. Data were analyzed using a four-parameter curve fit with a fixed minimum and maximum experimentally defined as the average positive and negative controls on each plate.
As for `Cc1n[nH]c2cc(-c3ccc(NS(=O)(=O)c4cc(Cl)ccc4F)cc3)nc(OCCC(=O)N(C)C)c12` [Example 687], the IC50 came out at 15 nM.

As for `Cc1nc(-c2ccc(NS(=O)(=O)c3cccc(C#N)c3)cc2)nc2[nH]nc(N)c12` [Example 471], the IC50 worked out at 97 nM.

As for `CC(C)COc1nc(-c2ccc(NS(=O)(=O)c3cc(F)c(F)cc3Cl)cc2)nc2[nH]nc(N)c12` [Example 325], the concentration for half-maximal inhibition (IC50) was 1100 nM.

For `COCCc1nc(-c2ccc(NS(=O)(=O)c3ccc(F)cc3Cl)cc2)nc2[nH]nc(N)c12` [Example 507], the IC50 was found to be 1500 nM.

Regarding `COc1ccc(Oc2nc(-c3ccc(NS(=O)(=O)c4cc(F)ccc4F)cc3)cc3[nH]nc(C)c23)cn1` [Example 622], the IC50 came to 37 nM.

For the compound `Cc1n[nH]c2cc(-c3ccc(NS(=O)(=O)c4cc(Cl)ccc4F)cc3)nc(Oc3ccc(N(C)C)nc3)c12` [Example 694], the IC50 is 25 nM.

Consider `Nc1n[nH]c2cc(-c3ccc(NS(=O)(=O)c4cccc(Cl)c4F)cc3)nc(C(F)(F)F)c12` [Example 578], for which the IC50 was found to be 430 nM.

Take `COc1ccc(C#N)c(S(=O)(=O)Nc2ccc(-c3nc(OC4CCC(O)CC4)c4c(C)n[nH]c4n3)cc2)c1` (stereo not drawn) [Example 130]: the IC50 came out at 13 nM.

Consider `CCCOc1nc(-c2ccc(NS(=O)(=O)c3cc(Cl)ccc3Cl)cc2)cc2[nH]nc(N)c12` [Example 664], for which the IC50 came out at 13 nM.

In the case of `COc1ccc(Oc2nc(-c3ccc(NS(=O)(=O)c4ccccc4F)cc3)cc3[nH]nc(C)c23)cn1` [Example 624], the IC50 came to 37 nM.

With `COc1cc(Oc2nc(-c3ccc(NS(=O)(=O)c4cc(C)ccc4C#N)cc3)cc3[nH]nc(C)c23)ccn1` [Example 667], the IC50 is 11 nM.

Turning to `COCCN1CCC(Oc2nc(-c3ccc(NS(=O)(=O)c4cc(F)ccc4F)cc3)nc3[nH]nc(C)c23)CC1` [Example 407], the half-inhibitory concentration (IC50) stood at 11 nM.

Take `COc1ccc(Oc2nc(-c3ccc(NS(=O)(=O)c4cc(C)ccc4F)cc3)cc3[nH]nc(C)c23)cn1` [Example 654]: the IC50 was found to be 37 nM.

As to `CCOc1nc(-c2ccc(NS(=O)(=O)c3cc(F)c(F)cc3F)cc2)cc2[nH]nc(N)c12` [Example 613], the IC50 was found to be 19 nM.

Regarding `Cc1n[nH]c2cc(-c3ccc(NS(=O)(=O)c4cc(Cl)ccc4Cl)cc3)nc(OC3CC(C)(C)N(C)C(C)(C)C3)c12` [Example 620], the IC50 is 3.9 nM.

`Cc1ccc(F)c(S(=O)(=O)Nc2ccc(-c3nc(OCC(F)(F)CN)c4c(C)n[nH]c4n3)cc2)c1` [Example 364]: the IC50 came to 6.5 nM.

For the compound `O=S(=O)(Nc1ccc(-c2nc(OCC(F)(F)F)c3cn[nH]c3n2)cc1)c1cc(Cl)ccc1Cl` [Example 161], the IC50 is 19 nM.

In the case of `Nc1n[nH]c2cc(-c3ccc(NS(=O)(=O)c4cc(F)cc(F)c4Cl)cc3)nc(C(F)(F)F)c12` [Example 576], the IC50 was 430 nM.

Take `Cc1n[nH]c2cc(-c3ccc(NS(=O)(=O)c4cc(F)ccc4F)cc3)nc(OCC3CN(C(C)C)C3)c12` [Example 592]: the IC50 is 2 nM.

With `COc1ccc(F)c(S(=O)(=O)Nc2ccc(-c3cc4[nH]nc(C)c4c(OCCC(=O)N(C)C)n3)cc2)c1` [Example 692], the IC50 was 6.5 nM.

As for `Cc1n[nH]c2nc(-c3ccc(NS(=O)(=O)c4ccccc4F)cc3)nc(OC3CCN(C(C)C)CC3)c12` [Example 352], the IC50 amounted to 11 nM.

As to `COCCc1nc(-c2ccc(NS(=O)(=O)c3cc(Cl)ccc3F)cc2)nc2[nH]nc(N)c12` [Example 525], the IC50 was found to be 25 nM.

As to `COCCc1nc(-c2ccc(NS(=O)(=O)c3ccccc3F)cc2)nc2[nH]nc(N)c12` [Example 512], the IC50 came to 1500 nM.

As to `CC(C)COc1nc(-c2ccc(NS(=O)(=O)c3ccc(F)cc3Cl)cc2)nc2[nH]nc(N)c12` [Example 318], the IC50 is 950 nM.

Regarding `COCCc1nc(-c2ccc(NS(=O)(=O)c3cc(F)c(F)cc3Cl)cc2)nc2[nH]nc(N)c12` [Example 510], the IC50 is 1500 nM.

Regarding `Cc1n[nH]c2nc(-c3ccc(NS(=O)(=O)c4ccccc4F)cc3)nc(OCC(CO)CO)c12` [Example 360], the IC50 came out at 110 nM.

In the case of `COc1cc(Oc2nc(-c3ccc(NS(=O)(=O)c4cc(Cl)ccc4Cl)cc3)cc3[nH]nc(C)c23)ccn1` [Example 669], the IC50 was 31 nM.

Take `Cc1n[nH]c2nc(-c3ccc(NS(=O)(=O)c4cc(Cl)ccc4C#N)cc3)nc(OCC(C)C)c12` [Example 354]: the IC50 is 110 nM.

For the compound `COc1cc(Oc2nc(-c3ccc(NS(=O)(=O)c4cc(Cl)ccc4F)cc3)cc3[nH]nc(C)c23)ccn1` [Example 666], the IC50 was 25 nM.

Take `COc1ccc(F)c(S(=O)(=O)Nc2ccc(-c3cc4[nH]nc(C)c4c(Oc4ccc(OC)nc4)n3)cc2)c1` [Example 653]: the IC50 came to 30 nM.

For the compound `O=S(=O)(Nc1ccc(-c2nc(OC3CCNCC3(F)F)c3cn[nH]c3n2)cc1)c1cc(Cl)ccc1Cl` (stereo not drawn) [Example 247], the IC50 came out at 6.5 nM.

Take `Cc1ccc(Cl)c(S(=O)(=O)Nc2ccc(-c3cc4[nH]nc(C)c4c(OC4CC(C)(C)NC(C)(C)C4)n3)cc2)c1` [Example 648]: the IC50 worked out at 3.9 nM.

`O=C(Nc1n[nH]c2nc(-c3ccc(NS(=O)(=O)c4cc(Cl)ccc4Cl)cc3)ncc12)c1cccc(Cl)c1Cl` [Example 540]: the concentration for half-maximal inhibition (IC50) was determined as 11 nM.

Regarding `Nc1n[nH]c2nc(-c3ccc(NS(=O)(=O)c4cc(Cl)ccc4Cl)cc3)nc(OCC3CC3)c12` [Example 355], the IC50 was 13 nM.

Regarding `N#Cc1ccc(Cl)cc1S(=O)(=O)Nc1ccc(-c2cc3[nH]nc(N)c3c(C(F)(F)F)n2)cc1` [Example 570], the half-inhibitory concentration (IC50) was 2 nM.

As for `Cc1ccc(F)c(S(=O)(=O)Nc2ccc(-c3nc(O)c4cn[nH]c4n3)cc2)c1` [Example 108], the 50% inhibitory concentration (IC50) was 25 nM.

Regarding `COc1ccc(Cl)c(S(=O)(=O)Nc2ccc(-c3cc4[nH]nc(C)c4c(OCCC(=O)N(C)C)n3)cc2)c1` [Example 689], the IC50 is 13 nM.

For the compound `CCOc1nc(-c2ccc(NS(=O)(=O)c3cc(OC)ccc3Cl)cc2)cc2[nH]nc(C)c12` [Example 675], the IC50 worked out at 15 nM.

In the case of `COc1ccc(Oc2nc(-c3ccc(NS(=O)(=O)c4cc(Cl)ccc4F)cc3)cc3[nH]nc(C)c23)cn1` [Example 634], the IC50 worked out at 23 nM.

As to `CCN1CCC(Oc2nc(-c3ccc(NS(=O)(=O)c4ccccc4F)cc3)nc3[nH]nc(C)c23)CC1` [Example 402], the IC50 came out at 13 nM.

Turning to `Nc1n[nH]c2cc(-c3ccc(NS(=O)(=O)c4cc(F)cc(F)c4Cl)cc3)ncc12` [Example 557], the concentration for half-maximal inhibition (IC50) was 96 nM.

For the compound `CCOc1nc(-c2ccc(NS(=O)(=O)c3cc(Cl)ccc3F)cc2)cc2[nH]nc(C)c12` [Example 676], the IC50 worked out at 23 nM.

For the compound `Cc1ccc(C#N)c(S(=O)(=O)Nc2ccc(-c3nc(OCC(CO)CO)c4c(C)n[nH]c4n3)cc2)c1` [Example 371], the IC50 stood at 3.9 nM.

For the compound `COc1ccc(Cl)c(S(=O)(=O)Nc2ccc(-c3cc4[nH]nc(C)c4c(Oc4ccc(OC)nc4)n3)cc2)c1` [Example 651], the IC50 was 25 nM.

Regarding `COc1ccc(Cl)c(S(=O)(=O)Nc2ccc(-c3cc4[nH]nc(C)c4c(Oc4ccc(N(C)C)nc4)n3)cc2)c1` [Example 699], the IC50 stood at 25 nM.

Regarding `CCCOc1nc(-c2ccc(NS(=O)(=O)c3cc(F)c(F)cc3Cl)cc2)cc2[nH]nc(N)c12` [Example 605], the IC50 came out at 23 nM.

For `Cc1n[nH]c2cc(-c3ccc(NS(=O)(=O)c4cc(F)cc(F)c4Cl)cc3)nc(OC3CCN(C4CCC4)CC3)c12` [Example 638], the IC50 worked out at 11 nM.

For `O=S(=O)(Nc1ccc(-c2nc(C3CC3)c3cn[nH]c3n2)cc1)c1ccccc1F` [Example 206], the IC50 stood at 1100 nM.

`CCOc1nc(-c2ccc(NS(=O)(=O)c3cc(F)c(F)cc3Cl)cc2)cc2[nH]nc(N)c12` [Example 614]: the IC50 is 97 nM.

For `COc1ccc(Cl)c(S(=O)(=O)Nc2ccc(-c3cc4[nH]nc(C)c4c(Oc4ccnc(OC)c4)n3)cc2)c1` [Example 670], the IC50 is 25 nM.

As for `Cc1ccc(F)c(S(=O)(=O)Nc2ccc(-c3cc4[nH]nc(C)c4c(OCCC(=O)N(C)C)n3)cc2)c1` [Example 686], the IC50 worked out at 11 nM.

The assay is the same for the next values; noted with them: read-out: IC50 values for inhibition of SGK-1 enzymatic activity, peptide substrate 1 μM, ATP 10 μM, 60 min at 37° C.
Turning to `Nc1n[nH]c2nc(-c3ccc(NS(=O)(=O)c4cc(Cl)c(F)cc4F)cc3)nc(C3CC3)c12` [Example 448, N-[4-(3-Amino-4-cyclopropyl-1H-pyrazolo[3,4-d]pyrimidin-6-yl)phenyl]-5-chloro-2,4-difluoro-benzenesulfonamide], the IC50 is less than 1.5 nM.

With `O=S(=O)(Nc1ccc(-c2nc(-c3cccnc3)c3cn[nH]c3n2)cc1)c1cc(Cl)ccc1Cl` [Example 5, 2,5-Dichloro-N-[4-(4-pyridin-3-yl-1H-pyrazolo[3,4-d]pyrimidin-6-yl)-phenyl]-benzenesulfonamide], the IC50 was less than 1.2 nM.

Consider `COc1nc(-c2ccc(NS(=O)(=O)c3cc(Cl)ccc3F)cc2)nc2[nH]nc(N)c12` [Example 7, N-[4-(3-Amino-4-methoxy-1H-pyrazolo[3,4-d]pyrimidin-6-yl)-phenyl]-5-chloro-2-fluoro-benzenesulfonamide], for which the IC50 was less than 1.5 nM.
